Experiment [1] deals with T1, H3 receptors (recombinant human receptor, expressed in HEK-293 cells) (Homo sapiens, UniProt Q9Y5N1).
T1 construct: expressed in transfected cells; host or cells: HEK-293 (human embryonic kidney) cells
Briefly: H3-receptor binding assay, recombinant human receptor. The method, then:
(§1) General Procedure for H3-Receptor Binding Assay
(§2) The source of the H3 receptors in this experiment was guinea pig brain. Alternatively, the source of H3 receptors was recombinant human receptor, expressed in HEK-293 (human embryonic kidney) cells.
All compounds to be tested were dissolved in DMSO and then diluted into the binding buffer (50 mM Tris, pH 7.5) such that the final concentration was 2 μg/ml with 0.1% DMSO. Membranes were then added (400 μg of protein, 5 μg in the case of recombinant human receptor) to the reaction tubes. The reaction was started by the addition of 3 nM [^3H]R-α-methyl histamine (8.8 Ci/mmol) or 3 nM [^3H]N^α-methyl histamine (80 Ci/mmol) and continued under incubation at 30° C. for 30 min. Bound ligand was separated from unbound ligand by filtration, and the amount of radioactive ligand bound to the membranes was quantitated by liquid scintillation spectrometry. All incubations were performed in duplicate and the standard error was always less than 10%. Compounds that inhibited more than 70% of the specific binding of radioactive ligand to the receptor were serially diluted to determine a Ki (nM).

The target in experiment [2] is T2, H3 receptors (guinea pig brain) (Cavia porcellus, UniProt Q9JI35).
T2 construct: The brain tissue was homogenized with a solution of 50 mM Tris, pH 7.5; from tissue; host or cells: guinea pig brain membranes
Kind of experiment: H3-receptor binding assay, guinea pig brain membranes. The method, then: as §1, §2
The animals weighed 400-600 g. The brain tissue was homogenized with a solution of 50 mM Tris, pH 7.5. The final concentration of tissue in the homogenization buffer was 10% w/v. The homogenates were centrifuged at 1,000×g for 10 min. in order to remove clumps of tissue and debris. The resulting supernatants were then centrifuged at 50,000×g for 20 min. in order to sediment the membranes, which were next washed three times in homogenization buffer (50,000×g for 20 min. each). The membranes were frozen and stored at −70° C. until needed.
All compounds to be tested were dissolved in DMSO and then diluted into the binding buffer (50 mM Tris, pH 7.5) such that the final concentration was 2 μg/ml with 0.1% DMSO. Membranes were then added (400 μg of protein, 5 μg in the case of recombinant human receptor) to the reaction tubes. […] Bound ligand was separated from unbound ligand by filtration, and the amount of radioactive ligand bound to the membranes was quantitated by liquid scintillation spectrometry. […]

The structures appear in SMILES notation.

Drawing on patent US7408066B2, “Carbon-linked substituted piperidines and derivatives thereof useful as histamine H3 antagonists” (Schering Corproation, priority 2005, dated 2008), this text covers Ki for two compounds.

T1 sequence (Q9Y5N1 whole entry): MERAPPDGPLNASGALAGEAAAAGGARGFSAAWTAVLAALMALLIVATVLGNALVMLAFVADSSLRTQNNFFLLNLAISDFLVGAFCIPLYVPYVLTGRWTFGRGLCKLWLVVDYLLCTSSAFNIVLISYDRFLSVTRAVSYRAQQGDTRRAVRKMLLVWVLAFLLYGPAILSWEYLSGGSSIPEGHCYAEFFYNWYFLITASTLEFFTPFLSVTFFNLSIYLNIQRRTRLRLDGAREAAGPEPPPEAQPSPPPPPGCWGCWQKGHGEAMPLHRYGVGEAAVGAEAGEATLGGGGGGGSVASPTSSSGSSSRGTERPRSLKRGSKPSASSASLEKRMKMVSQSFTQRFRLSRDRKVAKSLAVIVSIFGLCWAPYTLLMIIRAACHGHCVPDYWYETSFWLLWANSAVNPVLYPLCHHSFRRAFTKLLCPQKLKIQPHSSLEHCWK
T2 sequence (Q9JI35 whole entry): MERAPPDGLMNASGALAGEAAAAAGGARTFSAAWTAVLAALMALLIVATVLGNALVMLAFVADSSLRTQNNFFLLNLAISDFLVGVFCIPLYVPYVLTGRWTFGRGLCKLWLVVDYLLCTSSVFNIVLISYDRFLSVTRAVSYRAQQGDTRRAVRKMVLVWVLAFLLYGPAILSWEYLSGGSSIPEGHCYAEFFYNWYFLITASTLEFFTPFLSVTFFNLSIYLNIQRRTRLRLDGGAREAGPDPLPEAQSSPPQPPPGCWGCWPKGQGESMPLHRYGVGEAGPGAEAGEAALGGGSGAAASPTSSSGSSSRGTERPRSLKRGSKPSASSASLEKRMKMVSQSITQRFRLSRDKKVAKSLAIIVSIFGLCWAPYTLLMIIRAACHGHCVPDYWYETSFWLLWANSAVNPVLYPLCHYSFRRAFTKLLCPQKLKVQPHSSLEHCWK

For the compound `CNC(=O)[C@H]1C[C@@]1(c1ccc(Cl)cc1)C1CCN(C(=O)C2CCN(Cc3ccnc(N)c3)CC2)CC1` [Example 88], the Ki – broadly, the equilibrium dissociation constant of an inhibitor or competing ligand from its target – in experiment [1] was 1.1 nM.
In experiment [2], `CS(=O)(=O)NC(c1ccccn1)C1CCN(C(=O)C2CCN(Cc3ccnc(N)c3)CC2)CC1` (centres unmarked) [Example 92] registered a Ki of 0.35 nM.
